Measurements as given in paper PMC3891991, “Synthesis and molecular modeling of six novel monastrol analogues: evaluation of cytotoxicity and kinesin inhibitory activity against HeLa cell line” (DARU Journal of Pharmaceutical Sciences, 2013).
In brackets after ≈: the same amount, converted by molar mass.

What was measured:
[1] = target: T1, kinesin heavy chain Motor (Homo sapiens, UniProt P33176); assay: Kinesin ATPase activity assay (ELIPA kit, inorganic phosphate); type: biochemical; conditions: ATPase activity of kinesin, n = 2, read-out: IC 50 (μg/ml) for Kinesin inhibition (converted)
T1 construct: kinesin heavy chain Motor (Cytoskeleton, Cat # KR01-A); purchased Cytoskeleton KR01-A
T1 sequence (P33176 8-325 limits assumed): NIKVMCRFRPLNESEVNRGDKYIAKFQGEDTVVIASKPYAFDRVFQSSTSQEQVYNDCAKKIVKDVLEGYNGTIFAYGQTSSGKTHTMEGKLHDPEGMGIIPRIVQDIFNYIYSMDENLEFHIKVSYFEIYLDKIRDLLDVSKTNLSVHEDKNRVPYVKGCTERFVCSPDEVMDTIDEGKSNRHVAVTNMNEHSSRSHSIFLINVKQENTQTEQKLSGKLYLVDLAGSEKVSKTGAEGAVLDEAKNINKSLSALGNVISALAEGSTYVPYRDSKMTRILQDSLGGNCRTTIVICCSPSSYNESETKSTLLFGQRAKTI

[2] = tested on: HeLa cell line; assay: MTT cytotoxicity assay on HeLa cells; conditions: Homo sapiens, 24 h, read-out: IC 50 (μg/ml) ± SD on HeLa cell line
Protocol: HeLa cell line was obtained from National Cell Bank of Iran, Pasteur Institute of Iran.
Cytotoxic effects of synthesized compounds were determined using the MTT [3-(4,5-dimethylthiazol-2-yl)-2,5-diphenyltetrazolium bromide] assay [18-20]. Briefly, 5000 HeLa cells/well were seeded in a 96-well plate and cultured overnight. Different concentrations of synthesized compounds were added to each well. […] Then, the medium was removed, and the purple formazan crystals were dissolved in 150 μl dimethylsulfoxide (Merck, Germany). Absorbance was measured at 545 nm (630 nm as a reference) in Synergy H4 Hybrid Multi-Mode Microplate Reader (Biotek, Model: H4MLFPTAD). IC50 was calculated using CalcuSyn (BioSoft).
HeLa cells were incubated with different concentrations of newly synthesized compounds for 24 h and cytotoxicities were evaluated using MTT assay.

Compound	IC50 [1]	melting point	IC50 [2]
CSc1ncc(C2NC(=O)NC3=C2C(=O)CC(C)(C)C3)n1Cc1ccccc1 (stereo not drawn) [Compound 4a, 4-[1-benzyl-2-(methylthio)-1H-imidazol-5-yl)-3,4,7,8-tetrahydro-7,7 dimethyl-quinazoline-2,5-(1H,6H)-diones]	182 µM	169 °C	210 ± 21 µg/mL (≈ 530 µM)
CSc1ncc(C2NC(=S)NC3=C2C(=O)CC(C)(C)C3)n1Cc1ccccc1 (stereo not drawn) [Compound 4b, 4-[1-benzyl-2-(methylthio)-1H-imidazol-5-yl)-1,2,3,4,7,8-hexahydro-7,7 dimethyl-2-thio oxoquinazoline-5-(6H)-one]	187 µM	157 °C	301 ± 22 µg/mL (≈ 730 µM)
CSc1ncc(C2NC(=O)NC3=C2C(=O)CC(C)(C)C3)n1Cc1ccccc1Cl (stereo not drawn) [Compound 4c, 4-[1-(2-chlorobenzyl)-2-(methylthio)-1H-imidazol-5-yl]-3,4,7,8-tetrahydro-7,7 dimethyl quinazoline-2,5-(1H,6H)-diones]	183 µM	149 °C	98 ± 19 µg/mL (≈ 227 µM)
CSc1ncc(C2NC(=S)NC3=C2C(=O)CC(C)(C)C3)n1Cc1ccccc1Cl (stereo not drawn) [Compound 4d, 4-[1-(2-chlorobenyl)-2-methylthio-1H-imidazol-5-yl]-1,2,3,4,7,8-hexahydro-7,7 dimethyl-2-thio oxoquinazoline-5-(6H)-one]	–	142 °C	–
CC1(C)CC(=O)C2=C(C1)NC(=S)NC2c1cccc(O)c1 (stereo not drawn) [dimethylenastrone, dimethylenastron, reference compound]	–	–	338 ± 26 µg/mL (≈ 1120 µM)

Continued, in another order:

IC50 [1]	melting point	Compound	IC50 [2]
232 µM	82 °C	CSc1ncc(C2NC(=O)NC3=C2C(=O)CC(C)(C)C3)n1Cc1ccc(F)cc1 (stereo not drawn) [Compound 4e, 4-[1-(4-fluorobenzyl)-2-(methylthio)-1H-imidazol-5-yl]-3,4,7,8 – tetrahydro-7,7 dimethyl quinazoline-2,5-(1H,6H)-diones]	110 ± 28 µg/mL (≈ 265 µM)
460 µM	149 °C	CSc1ncc(C2NC(=S)NC3=C2C(=O)CC(C)(C)C3)n1Cc1ccc(F)cc1 (stereo not drawn) [Compound 4f, 4-[1-(4-fluorobenzyl)-2-methylthio-1H-imidazol-5-yl]-1,2,3,4,7,8-hexahydro-7,7-dimethyl-2-thiooxoquinazoline-5-(6H)-one]	339 ± 23 µg/mL (≈ 787 µM)
8.2 µM	–	CC(=O)O[C@H]1C(=O)[C@@]2(C)[C@H]([C@H](OC(=O)c3ccccc3)[C@]3(O)C[C@H](OC(=O)[C@H](O)[C@@H](NC(=O)c4ccccc4)c4ccccc4)C(C)=C1C3(C)C)[C@]1(OC(C)=O)CO[C@@H]1C[C@@H]2O [Taxol, reference compound]	–
